Laboratory results published in patent US20240116962A1, “PYRIDINE-2-AMINE DERIVATIVE AND PHARMACEUTICAL COMPOSITION AND USE THEREOF” (TSINGHUA UNIVERSITY, priority 2020, published 2024).
Where two headings read alike, the source gives them in different places.

Experiments:
hTLR8 = molecular target: T1, hTLR8 (Homo sapiens, UniProt Q9NR97); test: EC50 assay for small molecule agonists, HEK-Blue hTLR8 cells, SEAP readout; assay type: cell-based
T1 construct: host or cells: HEK-Blue hTLR8 (HEK293-derived reporter cells with SEAP read-out)
T1 sequence (Q9NR97 27-1041): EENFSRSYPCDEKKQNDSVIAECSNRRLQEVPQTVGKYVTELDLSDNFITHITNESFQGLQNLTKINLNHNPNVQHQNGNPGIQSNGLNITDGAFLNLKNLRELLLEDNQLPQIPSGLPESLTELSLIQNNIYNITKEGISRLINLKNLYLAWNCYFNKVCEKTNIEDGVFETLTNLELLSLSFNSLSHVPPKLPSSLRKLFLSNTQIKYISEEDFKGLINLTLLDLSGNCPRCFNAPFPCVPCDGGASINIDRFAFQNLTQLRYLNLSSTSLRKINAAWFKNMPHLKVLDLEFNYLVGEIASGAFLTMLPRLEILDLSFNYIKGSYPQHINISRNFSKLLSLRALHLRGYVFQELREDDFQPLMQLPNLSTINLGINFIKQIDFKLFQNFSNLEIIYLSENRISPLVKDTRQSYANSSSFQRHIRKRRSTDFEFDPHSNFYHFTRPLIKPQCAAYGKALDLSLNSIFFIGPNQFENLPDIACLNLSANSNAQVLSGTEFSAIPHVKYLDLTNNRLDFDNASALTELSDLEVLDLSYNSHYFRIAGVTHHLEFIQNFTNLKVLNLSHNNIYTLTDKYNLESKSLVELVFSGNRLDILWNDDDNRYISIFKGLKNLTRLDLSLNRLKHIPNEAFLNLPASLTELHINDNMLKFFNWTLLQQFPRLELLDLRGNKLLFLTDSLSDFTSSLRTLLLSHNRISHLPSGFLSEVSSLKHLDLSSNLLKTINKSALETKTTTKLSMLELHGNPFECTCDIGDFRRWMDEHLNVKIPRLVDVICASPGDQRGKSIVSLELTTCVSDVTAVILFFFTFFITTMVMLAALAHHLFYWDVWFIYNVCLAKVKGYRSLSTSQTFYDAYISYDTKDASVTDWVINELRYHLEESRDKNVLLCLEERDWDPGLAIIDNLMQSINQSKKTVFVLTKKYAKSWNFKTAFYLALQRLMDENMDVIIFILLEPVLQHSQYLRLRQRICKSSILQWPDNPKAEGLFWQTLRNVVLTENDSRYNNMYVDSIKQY
Procedure: (§1) Reagents used for cell culture and detection for HEK-Blue™ hTLR7, HEK-Blue™ hTLR8 and control HEK-Blue Nu112k were as follows: DMEM (4.5 g/L glucose), bovine serum FBS, streptomycin ([…]), penicillin (50 U/mL), Blasticidin (10 mg/mL), Zeocin™ (10 mg/mL), Normocin (50 mg/mL), and HEK-Blue™ Detection. Basal medium was as follows: DMEM +10% FBS+streptomycin+penicillin+Normocin ([…]); selective medium for resistance genes was as follows: DMEM+10% FBS+streptomycin+penicillin+Normocin (1001 μg/mL)+Blasticidin (1001 μg/mL)+Zeocin™ (1001 μg/mL).
(§2) Cell preparation: HEK-Blue™ hTLR7 and HEK-Blue™ hTLR8 cell lines were purchased from Invivogen. The cells frozen in liquid nitrogen were taken, quickly placed in a water bath at 37° C., shaken occasionally, and completely melted within 1 min. The cells were transferred to 15 mL of pre-heated basal medium and resuspended; centrifuged at 1,000 r/min for 5 min, supernatant discarded; resuspended with 1 mL of basal medium, transferred to a T25 culture flask, supplemented to 5 mL with the medium, and incubated in an incubator at 37° C.; after stable passage twice, and subjected to selective antibiotic screening: HEK-Blue™ hTLR7 or HEK-Blue™ hTLR8: 100 μg/mL Zeocin+Blasticidin (30 μg/mL), HEK-Blue Nu112-k: 100 μg/mL Zeocin. The fluid was changed 3 times a week. When the number of cells reached 70%-80%, PBS was added, and the cells were exfoliated by gently pipetting.
(§3) Activity assay steps: (1) adding a test sample to a 96-well plate at 20 μL/well (triplicate wells were set); (2) adding 20 μL of positive control (e.g., R848), and adding 20 μL of negative control (e.g., ddH2O); (3) removing a T75 culture flask from the incubator, discarding the medium, adding 5-10 mL of pre-heated PBS, and gently pipetting the cells; adding 2-5 mL of PBS to the culture flask, incubating the culture flask in the incubator for 1-2 min, and then gently pipetting the cells to make them exfoliated; (4) mixing the mixture well, and counting the cells, without centrifugation; resuspending the cells with HEK-Blue™ assay solution and adjusting the cell number, taking care not to incubate for a long time to avoid too deep background or false positive. HEK-Blue hTLR cell number was about 2.2×10^5/mL, 180 μL/well (about 40000 cells), and HEK-Blue Nu112-k cell number was about 2.8×10^5/mL, 180 μL/well (about 50000 cells). (5) incubating the cells in the incubator at 37° C. for 6-16 h, and detecting at 620-655 nm for SEAP readings.
(§4) Effect %=(mean OD of the administration group−mean OD of the H2O group at each concentration)/(mean ODmax of the positive drug group−mean OD of the H2O group)×100. EC50 was calculated by fitting Lg [concentration]-effect curves using GraphPad Prism5 software.
(§5) Experimental results: the concentration for 50% of maximal effect (EC50) refers to a corresponding concentration of small molecules that can cause 50% of the maximal agonistic effect. […] EC50 represents a potency for agonizing the TLR8 receptor, with smaller values indicating better efficacy. […] In the following table, the unit of the agonist activity is nanomole, unless otherwise specified.

hTLR7 = molecular target: T2, hTLR7 (Homo sapiens, UniProt Q9NYK1); test: EC50 assay for small molecule agonists, HEK-Blue hTLR7 cells, SEAP readout; assay type: cell-based; conditions: agonist activity
T2 construct: host or cells: HEK-Blue hTLR7 (HEK293-derived reporter cells with SEAP read-out)
T2 sequence (Q9NYK1 27-1049): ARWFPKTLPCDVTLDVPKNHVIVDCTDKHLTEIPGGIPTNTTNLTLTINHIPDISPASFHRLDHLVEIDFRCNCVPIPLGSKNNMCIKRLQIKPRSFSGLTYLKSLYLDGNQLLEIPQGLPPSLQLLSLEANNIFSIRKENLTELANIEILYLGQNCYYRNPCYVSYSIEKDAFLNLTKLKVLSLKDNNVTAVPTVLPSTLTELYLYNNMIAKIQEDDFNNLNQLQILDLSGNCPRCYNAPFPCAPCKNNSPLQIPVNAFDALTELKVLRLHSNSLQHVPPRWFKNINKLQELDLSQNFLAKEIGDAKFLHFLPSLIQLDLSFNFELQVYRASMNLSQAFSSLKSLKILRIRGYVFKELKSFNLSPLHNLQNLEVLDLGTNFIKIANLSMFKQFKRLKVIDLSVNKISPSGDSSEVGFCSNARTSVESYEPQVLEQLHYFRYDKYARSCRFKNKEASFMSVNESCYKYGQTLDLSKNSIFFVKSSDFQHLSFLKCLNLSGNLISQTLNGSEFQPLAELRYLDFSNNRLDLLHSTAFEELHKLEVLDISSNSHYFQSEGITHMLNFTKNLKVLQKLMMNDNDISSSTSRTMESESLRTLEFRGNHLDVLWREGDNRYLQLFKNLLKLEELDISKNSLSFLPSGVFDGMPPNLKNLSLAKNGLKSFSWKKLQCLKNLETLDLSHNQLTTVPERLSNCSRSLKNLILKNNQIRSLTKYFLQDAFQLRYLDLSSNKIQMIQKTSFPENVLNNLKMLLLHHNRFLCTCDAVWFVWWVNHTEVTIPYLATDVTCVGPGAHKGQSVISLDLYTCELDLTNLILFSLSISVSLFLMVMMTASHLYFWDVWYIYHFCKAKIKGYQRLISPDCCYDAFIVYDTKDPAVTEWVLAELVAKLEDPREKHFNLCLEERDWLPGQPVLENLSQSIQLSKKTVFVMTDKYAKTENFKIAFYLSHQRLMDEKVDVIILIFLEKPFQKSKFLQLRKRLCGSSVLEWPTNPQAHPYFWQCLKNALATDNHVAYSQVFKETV
Procedure: as §1, §2, §3, §4, §5

[1] = agonist activity, read-out: hTLR8(EC50)
[2] = read-out: concentration for 50% of maximal effect (EC50) hTLR8

Row | Compound | EC50 (hTLR8; [1]) [nM] | EC50 (hTLR7; nd = EC50 larger than 25 μM) [nM] | EC50 (hTLR8; [2]) [nM] | EC50 (hTLR7) [nM]
1 | CCCCCc1cc(Cc2ccccc2CN2CCOCC2)c(C)nc1N [Compound N36] | > 4000 | > 25000 | – | –
2 | CCCCCc1cc(Cc2ccccc2CN)c(C)nc1N [Compound N37] | > 4000 | > 25000 | – | –
3 | CCCCCc1cc(Cc2ccc(C(=O)N(C)C)cc2)c(C)nc1N [Compound N38] | > 4000 | > 25000 | – | –
4 | CCCCCc1cc(Cc2ccc(C(=O)N3CCCC3)cc2)c(C)nc1N [Compound N39] | > 4000 | > 25000 | – | –
5 | CCCCCc1cc(Cc2ccc(C(=O)N3CCOCC3)cc2)c(C)nc1N [Compound N40] | > 4000 | > 25000 | – | –
6 | CCCCCc1cc(Cc2ccc(C(=O)N3CCN(C)CC3)cc2)c(C)nc1N [Compound N41] | > 4000 | > 25000 | – | –
7 | CCCCCc1cc(Cc2ccc(CN(C)C)cc2OC)c(C)nc1N [Compound N42] | 87 | > 25000 | – | –
8 | CCCCCc1cc(Cc2ccc(CN3CCCC3)cc2OC)c(C)nc1N [Compound N43] | 102 | > 25000 | – | –
9 | CCCCCc1cc(Cc2ccc(CN3CCOCC3)cc2OC)c(C)nc1N [Compound N44] | 1130 | > 25000 | – | –
10 | CCCCCc1cc(Cc2ccc(CN3CCN(C)CC3)cc2OC)c(C)nc1N [Compound N45] | 166 | > 25000 | – | –
11 | CCCCCc1cc(Cc2ccc(CN(C)C)cc2O)c(C)nc1N [Compound N46] | 351 | > 25000 | – | –
12 | CCCCCc1cc(Cc2ccc(CN3CCCC3)cc2O)c(C)nc1N [Compound N47] | 473 | > 25000 | – | –
13 | CCCCCc1cc(Cc2ccc(CN3CCOCC3)cc2O)c(C)nc1N [Compound N48] | > 4000 | > 25000 | – | –
14 | CCCCCc1cc(Cc2ccc(CN3CCN(C)CC3)cc2O)c(C)nc1N [Compound N49] | 627 | > 25000 | – | –
15 | CCCCCc1cc(Cc2ccc(CN(C)C)cc2OC(C)=O)c(C)nc1N [Compound N50] | 105 | > 25000 | – | –
16 | CCCCCc1cc(Cc2ccc(CN3CCCC3)cc2OC(C)=O)c(C)nc1N [Compound N51] | 175 | > 25000 | – | –
17 | CCCCCc1cc(Cc2ccc(CN(C)C)cc2OC(=O)CC(C)C)c(C)nc1N [Compound N52] | 252 | > 25000 | – | –
18 | CCCCCc1cc(Cc2ccc(CN3CCN(C)CC3)cc2OC(C)=O)c(C)nc1N [Compound N53] | 273 | > 25000 | – | –
19 | CCCCCc1cc(CCc2ccc(CN(C)C)cc2)c(C)nc1N [Compound N54] | 518 | > 25000 | – | –
20 | CCCCNc1cc(Cc2ccc(CN(C)C)cc2)c(C)nc1N [Compound N55] | – | > 25000 | 15 | –
21 | CCCCNc1cc(Cc2ccc(CN3CCCC3)cc2)c(C)nc1N [Compound N56] | 28 | > 25000 | – | –
22 | CCCCNc1cc(Cc2ccc(CN3CC4(COC4)C3)cc2)c(C)nc1N [Compound N57] | 16 | > 25000 | – | –
23 | CCCCNc1cc(Cc2ccc(CN3CC4(COC4)C3)cc2F)c(C)nc1N [Compound N58] | 40 | > 25000 | – | –
24 | CCCN(CCC)C(=O)C1=Cc2ccc(-c3ccc(C(=O)N4CCCC4)cc3)cc2N=C(N)C1 [VTX2337, reference compound] | – | – | 102 | > 3000
